Literature values, collected in patent US11992559B2, “Microsphere formulations comprising lurasidone and methods for making and using the same” (Oakwood Laboratories, LLC, priority 2021, dated 2024).
Where a name gives a salt, the structure may show the parent alone.

Assays:
[1] = at 25° C.

specific hydrophobicity log Pow [1]: 5.6
solubility in benzyl alcohol (benzyl alcohol): 69.19 mg/g
solubility in dichloromethane (dichloromethane): 24.43 mg/g
water solubility (water): 224 µg/mL
SMILES: O=C1[C@@H]2[C@H]3CC[C@H](C3)[C@@H]2C(=O)N1C[C@@H]1CCCC[C@H]1CN1CCN(c2nsc3ccccc23)CC1 [lurasidone HCl, Lurasidone]
